Tested on: UCD patients
Test: Example 3: TEAEs, serious and non-serious adverse events
Assay type: in vivo
From the text: Sixteen newborn infants aged 0 to 27 days, and 10 infants and toddlers aged 28 days to 23 months received RAVICTI Oral Liquid administered just prior to breastfeeding or intake of formula or food. The recommended dosing regimen was 3-6 times per day depending on feeding schedule.
Number of Subjects with Treatment-Emergent Adverse Events (TEAEs), Serious TEAEs, Deaths, and Discontinuations Due to TEAEs
An adverse event (AE) is any untoward medical occurrence, whether or not the event is considered related to the study drug. A serious AE is any AE that: results in death; is life threatening; requires hospitalization or prolongation of existing hospitalization; results in disability/incapacity; is a congenital anomaly/birth defect; is an important medical event. TEAEs are defined as AEs with an onset date on or after the first dose of study medication until study discontinuation. The Investigator assessed the causal relationship of each TEAE to the study drug as not related, possibly related, or probably related. From the first dose of study treatment through 30 days after the final dose (mean [SD] duration of treatment was 9.13 [6.838] months).

[1] = Non-serious adverse events, Age 0 to <2 Months
[2] = Non-serious adverse events, Age 2 Months to <2 Years
[3] = aged 0 to 2 months, 16 analyzed
[4] = aged 2 months and up to 2 years, 10 analyzed

O=C(CCCc1ccccc1)OCC(COC(=O)CCCc1ccccc1)OC(=O)CCCc1ccccc1 [RAVICTI, benzenebutanoic acid, 1′,1″-(1,2,3-propanetriyl) ester]
Irritability, Occurrences (all) [1]: 1 | Lethargy, Occurrences (all) [1]: 1 | Leukocytosis, Occurrences (all) [1]: 1 | Lower respiratory tract infection, Occurrences (all) [1]: 1 | Lymphocytosis, Occurrences (all) [1]: 1 | Medical device site haemorrhage, Occurrences (all) [1]: 1 | Metabolic acidosis, Occurrences (all) [1]: 2 | Microcytic anaemia, Occurrences (all) [1]: 1 | Musculoskeletal and connective tissue Disorders (Torticollis), Occurrences (all) [1]: 1 | Nail ridging, Occurrences (all) [1]: 0 | Nasal congestion, Occurrences (all) [1]: 2 | Nasopharyngitis, Occurrences (all) [1]: 7 | Nephrolithiasis, Occurrences (all) [1]: 1 | Neutropenia, Occurrences (all) [1]: 1 | Ocular hyperaemia, Occurrences (all) [1]: 1 | Oral candidiasis, Occurrences (all) [1]: 2 | Oropharyngeal pain, Occurrences (all) [1]: 2 | Otitis media acute, Occurrences (all) [1]: 1 | Otitis media, Occurrences (all) [1]: 1 | Pharyngitis, Occurrences (all) [1]: 0 | Plagiocephaly, Occurrences (all) [1]: 2 | Platelet count increased, Occurrences (all) [1]: 1 | Pneumonia, Occurrences (all) [1]: 0 | Pneumothorax, Occurrences (all) [1]: 1 | Post-tussive vomiting, Occurrences (all) [1]: 1 | Protein deficiency, Occurrences (all) [1]: 2 | Pyrexia, Occurrences (all) [1]: 3 | Rash, Occurrences (all) [1]: 6 | Red man syndrome, Occurrences (all) [1]: 1 | Respiratory disorder, Occurrences (all) [1]: 0 | Respiratory syncytial virus infection, Occurrences (all) [1]: 1 | Rhinorrhoea, Occurrences (all) [1]: 0 | Rhinovirus infection, Occurrences (all) [1]: 1 | Seborrhoeic dermatitis, Occurrences (all) [1]: 2 | Sinusitis, Occurrences (all) [1]: 1 | Stoma site reaction, Occurrences (all) [1]: 1 | Tachypnoea, Occurrences (all) [1]: 1 | Teething, Occurrences (all) [1]: 3 | Thrombocytopenia, Occurrences (all) [1]: 2 | Thrombocytosis, Occurrences (all) [1]: 2 | Tibia fracture, Occurrences (all) [1]: 0 | Transaminases increased, Occurrences (all) [1]: 1 | Tremor, Occurrences (all) [1]: 1 | Upper respiratory tract infection, Occurrences (all) [1]: 7 | Urinary tract infection, Occurrences (all) [1]: 2 | Use of accessory respiratory muscles, Occurrences (all) [1]: 1 | Vascular disorders (Venous thrombosis limb), Occurrences (all) [1]: 0 | Vesicoureteric reflux, Occurrences (all) [1]: 0 | Viral infection, Occurrences (all) [1]: 1 | Vomiting, Occurrences (all) [1]: 12 | Weight decreased, Occurrences (all) [1]: 1 | Agitation, Occurrences (all) [2]: 0 | Alanine aminotransferase increased, Occurrences (all) [2]: 0 | Amino acid level decreased, Occurrences (all) [2]: 1 | Amino acid level increased, Occurrences (all) [2]: 0 | Ammonia increased, Occurrences (all) [2]: 1 | Anaemia, Occurrences (all) [2]: 1 | Angular cheilitis, Occurrences (all) [2]: 0 | Anion gap increased, Occurrences (all) [2]: 0 | Apnoea, Occurrences (all) [2]: 1 | Arthropod bite, Occurrences (all) [2]: 0 | Aspartate aminotransferase increased, Occurrences (all) [2]: 0 | Blood bicarbonate decreased, Occurrences (all) [2]: 0 | Blood urea decreased, Occurrences (all) [2]: 0 | Body height below normal, Occurrences (all) [2]: 0 | Candida infection, Occurrences (all) [2]: 0 | Carbon dioxide decreased, Occurrences (all) [2]: 1 | Cardiac disorders (Tachycardia), Occurrences (all) [2]: 0 | Catheter site rash, Occurrences (all) [2]: 0 | Conjunctivitis, Occurrences (all) [2]: 1 | Constipation, Occurrences (all) [2]: 2 | Cough, Occurrences (all) [2]: 2 | Croup infectious, Occurrences (all) [2]: 1 | Dacryostenosis congenital, Occurrences (all) [2]: 1 | Decreased appetite, Occurrences (all) [2]: 0 | Dehydration, Occurrences (all) [2]: 0 | Dermatitis diaper, Occurrences (all) [2]: 1 | Device occlusion, Occurrences (all) [2]: 0 | Diarrhoea, Occurrences (all) [2]: 1 | Drug withdrawal syndrome, Occurrences (all) [2]: 0 | Dysphagia, Occurrences (all) [2]: 0 | Ear and labyrinth disorders (Excessive cerumen production), Occurrences (all) [2]: 1 | Ear infection, Occurrences (all) [2]: 0 | Eczema, Occurrences (all) [2]: 1 | Eye discharge, Occurrences (all) [2]: 0 | Feeding disorder of infancy or early childhood, Occurrences (all) [2]: 0 | Flatulence, Occurrences (all) [2]: 0 | Gamma-glutamyltransferase increased, Occurrences (all) [2]: 0 | Gastroenteritis, Occurrences (all) [2]: 2 | Gastrointestinal viral infection, Occurrences (all) [2]: 0 | Gastrooesophageal reflux disease, Occurrences (all) [2]: 0 | Gross motor delay, Occurrences (all) [2]: 1 | Hepatic enzyme increased, Occurrences (all) [2]: 0 | Hepatobiliary disorders (Hepatic calcification), Occurrences (all) [2]: 0 | Hyperammonaemia, Occurrences (all) [2]: 0 | Hypophagia, Occurrences (all) [2]: 3 | Immune System Disorders (Seasonal allergy), Occurrences (all) [2]: 1 | Irritability, Occurrences (all) [2]: 0 | Lethargy, Occurrences (all) [2]: 0 | Leukocytosis, Occurrences (all) [2]: 0 | Lower respiratory tract infection, Occurrences (all) [2]: 0 | Lymphocytosis, Occurrences (all) [2]: 0 | Medical device site haemorrhage, Occurrences (all) [2]: 0 | Metabolic acidosis, Occurrences (all) [2]: 2 | Microcytic anaemia, Occurrences (all) [2]: 0 | Musculoskeletal and connective tissue Disorders (Torticollis), Occurrences (all) [2]: 0 | Nail ridging, Occurrences (all) [2]: 1 | Nasal congestion, Occurrences (all) [2]: 1 | Nasopharyngitis, Occurrences (all) [2]: 2 | Nephrolithiasis, Occurrences (all) [2]: 0 | Neutropenia, Occurrences (all) [2]: 0 | Ocular hyperaemia, Occurrences (all) [2]: 0 | Oral candidiasis, Occurrences (all) [2]: 0 | Oropharyngeal pain, Occurrences (all) [2]: 0 | Otitis media acute, Occurrences (all) [2]: 0 | Otitis media, Occurrences (all) [2]: 2 | Pharyngitis, Occurrences (all) [2]: 1 | Plagiocephaly, Occurrences (all) [2]: 0 | Platelet count increased, Occurrences (all) [2]: 0 | Pneumonia, Occurrences (all) [2]: 1 | Pneumothorax, Occurrences (all) [2]: 0 | Post-tussive vomiting, Occurrences (all) [2]: 0 | Protein deficiency, Occurrences (all) [2]: 0 | Pyrexia, Occurrences (all) [2]: 2 | Rash, Occurrences (all) [2]: 3 | Red man syndrome, Occurrences (all) [2]: 0 | Respiratory disorder, Occurrences (all) [2]: 1 | Rhinorrhoea, Occurrences (all) [2]: 1 | Seborrhoeic dermatitis, Occurrences (all) [2]: 1 | Sinusitis, Occurrences (all) [2]: 2 | Stoma site reaction, Occurrences (all) [2]: 1 | Tachypnoea, Occurrences (all) [2]: 0 | Teething, Occurrences (all) [2]: 1 | Thrombocytopenia, Occurrences (all) [2]: 0 | Thrombocytosis, Occurrences (all) [2]: 0 | Tibia fracture, Occurrences (all) [2]: 1 | Transaminases increased, Occurrences (all) [2]: 0 | Tremor, Occurrences (all) [2]: 0 | Upper respiratory tract infection, Occurrences (all) [2]: 6 | Urinary tract infection, Occurrences (all) [2]: 1 | Use of accessory respiratory muscles, Occurrences (all) [2]: 0 | Vascular disorders (Venous thrombosis limb), Occurrences (all) [2]: 2 | Vesicoureteric reflux, Occurrences (all) [2]: 1 | Viral infection, Occurrences (all) [2]: 1 | Vomiting, Occurrences (all) [2]: 5 | Weight decreased, Occurrences (all) [2]: 0 | Subjects with TEAE leading to study discontinuation [3]: one | Subjects with fatal outcome TEAE [3]: no fatal outcome TEAEs | Subjects with one or more TEAE [3]: 16 subjects | Subjects with one or more related TEAE [3]: Ten | Subjects with one or more serious TEAE [3]: 11 subjects | Subjects with serious related TEAEs [3]: no subjects | Subjects with TEAE leading to study discontinuation [4]: one | Subjects with fatal outcome TEAE [4]: One | Subjects with one or more TEAE [4]: 10 subjects | Subjects with one or more related TEAE [4]: Four | Subjects with one or more serious TEAE [4]: 6 subjects | Subjects with serious related TEAEs [4]: no subjects | Respiratory syncytial virus infection, Occurrences (all) (in vivo): 0 | Respiratory syncytial virus infection, Subjects Affected/Exposed (in vivo): 0/10 (0.00%) | Rhinovirus infection, Occurrences (all) (in vivo): 0 | Rhinovirus infection, Subjects Affected/Exposed (in vivo): 0/10 (0.00%) | Serious AE Respiratory syncytial virus infection: Occurrences causally related to treatment/all (in vivo): 0/0 | Serious AE Respiratory syncytial virus infection: Subjects Affected/Exposed (in vivo): 0/10 (0.00%) | Serious AE Rhinovirus infection: Occurrences causally related to treatment/all (in vivo): 0/1 | Serious AE Rhinovirus infection: Subjects Affected/Exposed (in vivo): 1/10 (10.00%)

From patent publication US10668040B2, “Treatment of urea cycle disorders in neonates and infants” (Horizon Therapeutics, LLC, priority 2017, dated 2020)
